In article PMC12720774, “Detergents alter the stability and lipid binding properties of the CD1d immunoreceptor” (Protein Science : A Publication of the Protein Society, 2025):
“And” between values parts separate entries of the source, which are not always exact repeats. Equal entries are not always repeated. Where two headings read alike, the source gives them in different places.

Columns and labels:
hCD1d = hCD1d (Homo sapiens, UniProt P15813+P61769); experiment: Nano differential scanning fluorimetry (nanoDSF) thermal stability; type: binding; design: TEV protease cleavage site ENLYFQS (C); BirA biotinylation site (C); His7 (C); made in house; host or cells: TurboCHO cells (GenScript); conditions: for ΔTm aveage: Figure 5C, nanoDSF, hCD1d with detergent; for ΔT m (NanoDSF): T m difference between hCD1d in the absence and presence of 1000 μM detergent, 1 μM hCD1d; for ΔT m, detergent class summary: approximate
Description: We next sought to probe the ability of each detergent to influence the thermal stability of hCD1d. NanoDSF has been previously applied to measure lipid/detergent‐induced thermal stability changes in target proteins (Cecchetti et al., [2021]; Kotov et al., [2019]), but has not yet been applied to ligand binding to CD1. NanoDSF measures the ITF ratio (F 350 nm/F 330 nm) of proteins as a function of temperature to extract thermodynamic parameters. Given that ligand binding typically shifts the melting temperature of proteins, the effect of a ligand on protein stability can be approximated with the ΔT m value (the difference in T m with and without excess ligand) (Cecchetti et al., [2021]; Kotov et al., [2019]). We found all detergents tested to destabilize hCD1d, albeit to different degrees, with ΔT m values ranging from −0.8 to −14.2°C (Figures 4, S4, and Table 1).
Nano differential scanning fluorometry (nanoDSF) was performed using a Prometheus NT.48 (NanoTemper Technologies). Purified hCD1d at 1 μM in 1X PBS pH 7.4 was loaded into nanoDSF grade standard capillaries (NanoTemper Technologies) and exposed to temperatures ranging from 20 to 95°C with a thermal ramping rate of 1°C/min. Excitation power was set to 50%. The ratio of intrinsic fluorescence emission (F 350 nm/F 330 nm) was monitored. Melting temperatures (T m) were obtained from fitting the first derivative plots in the Prometheus NT.48 Software. The experiments were performed in triplicate, and data are presented as the mean ± standard deviation (n = 3).
For experiments with most detergents, prior to data acquisition, hCD1d and detergent or lipid samples were incubated at 37°C overnight (~12 h) to simulate in vitro and in vivo loading conditions. […] For 18:1 LPC experiments: nanoDSF spectra were acquired in the absence and presence of 18:1 LPC in 1X PBS pH 7.4 at 25°C.

AF647‐labeled hCD1d [1] = biological target: T1, AF647‐labeled hCD1d (Homo sapiens, UniProt P15813+P61769); experiment: Microscale thermophoresis (MST) binding assay
T1 construct: TEV protease cleavage site ENLYFQS (C); BirA biotinylation site (C); His7 (C); made in house; host or cells: TurboCHO cells (GenScript)
Description: (§1) The experimental limitations of ITF, such as low instrument sensitivity, high sample consumption, signal overlap with some ligands, and low throughput (Fossum et al., [2023]), made it necessary to employ alternative, complementary assays to quantify detergent binding to hCD1d. […] MST measures the diffusion of fluorescent molecules in response to microscopic temperature gradients (Seidel et al., [2013]). When a protein forms a complex with a ligand, changes in hydrodynamic properties, charge, or solvation energy alter its thermophoretic behavior, allowing detection of binding events. To perform MST experiments, Alexa Fluor 647 (AF647) dye was covalently attached to the primary amines of hCD1d via standard N‐hydroxysuccinimide coupling chemistry (Anderson et al., [1964]). The concentration of AF647‐hCD1d was kept constant, and the change in MST signal was measured as a function of increasing detergent concentration (Figure S3). Like ITF, any lipid or detergent that destabilizes CD1 can also alter the MST signal since unfolding changes the protein's Stokes radius and its thermophoretic behavior. […] This is why we compare MST results with ITF and nanoDSF, as described below.
(§2) For MST, hCD1d was fluorescently labeled with AF647‐NHS Ester (Invitrogen #A20006). Briefly, a 10 mM stock of AF647‐NHS was prepared in anhydrous DMSO. Then, 100 μL of 50 μM hCD1d in 1X PBS pH 7.4 was mixed with 1 μL of 10 mM AF647‐NHS (1:2 molar ratio of protein: dye). The mixture was allowed to react for 1 h in the dark at 25°C. Unreacted dye was removed from the protein–dye conjugate by performing size exclusion chromatography in the dark with a Superdex 200 Increase 10/300 GL column at a flow rate of 0.5 mL/min in SEC buffer (100 mM NaCl, 20 mM sodium phosphate, pH 7.2). The degree of labeling was determined by a NanoDrop spectrophotometer at A647 nm (dye absorbance) and A280 nm (hCD1d absorbance). The degree of labeling was determined from the ratio of dye concentration to protein concentration. The degree of labeling was ~75%.
(§3) MST experiments were performed using a Monolith NT.115 instrument (NanoTemper Technologies) using Monolith standard capillaries and the red excitation laser setup. The following settings were applied for all MST experiments: excitation power: 30%–50%, MST power: medium, before MST time: 3 s, MST on time (IR laser): 20 seconds, and after MST time: 1 s. MST measurements were analyzed using the Monolith Affinity Analysis software v2.3 and exported for plotting in GraphPad Prism v10.1. Three replicates were performed, and data are presented as the mean ± standard deviation (n = 3).
(§4) MST measurements of 100 nM AF647‐hCD1d were acquired in the absence and presence of detergents in 1X PBS pH 7.4 at 25°C. Prior to data acquisition, hCD1d and detergent or lipid samples were incubated at 37°C overnight (~12 h) to simulate in vitro and in vivo loading conditions. […] For 18:1 LPC experiments: MST data of 100 nM AF647‐hCD1d were acquired in the absence and presence of 18:1 LPC in 1X PBS pH 7.4 at 25°C.

AF647‐labeled hCD1d [2] = biological target: T2, AF647‐labeled hCD1d (Homo sapiens, UniProt P15813); experiment: Microscale thermophoresis (MST) binding assay
T2 construct: TEV protease cleavage site ENLYFQS (C); BirA biotinylation site (C); His7 (C); made in house; host or cells: TurboCHO cells (GenScript)
Description: as §1, §2, §3, §4

[3] = approximate, ref Anatrace catalogue, cited from earlier work
[4] = 0.001 M detergent, 100 nM AF647‐hCD1d
[5] = Figure 5B, detergent binding to hCD1d, read-out: MST - Kd (uM) average
[6] = detergent with 100 nM AF647‐labeled hCD1d, 25°C, apparent, read-out: K D (MST)

T1 sequence (P61769+P15813 fused): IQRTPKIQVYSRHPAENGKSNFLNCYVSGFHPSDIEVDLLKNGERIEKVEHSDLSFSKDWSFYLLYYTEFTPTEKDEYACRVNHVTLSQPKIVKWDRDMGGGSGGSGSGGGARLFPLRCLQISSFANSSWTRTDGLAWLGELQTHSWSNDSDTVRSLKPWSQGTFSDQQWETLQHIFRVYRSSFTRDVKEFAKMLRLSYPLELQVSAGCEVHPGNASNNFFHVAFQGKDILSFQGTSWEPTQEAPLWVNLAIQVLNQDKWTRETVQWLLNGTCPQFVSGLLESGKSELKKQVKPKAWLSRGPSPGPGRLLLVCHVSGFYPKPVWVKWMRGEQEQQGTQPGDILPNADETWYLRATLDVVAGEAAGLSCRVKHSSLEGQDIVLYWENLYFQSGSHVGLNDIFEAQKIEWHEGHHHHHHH
hCD1d, sequence (P61769+P15813 fused): as above
T2 sequence (P15813 whole entry, looked up): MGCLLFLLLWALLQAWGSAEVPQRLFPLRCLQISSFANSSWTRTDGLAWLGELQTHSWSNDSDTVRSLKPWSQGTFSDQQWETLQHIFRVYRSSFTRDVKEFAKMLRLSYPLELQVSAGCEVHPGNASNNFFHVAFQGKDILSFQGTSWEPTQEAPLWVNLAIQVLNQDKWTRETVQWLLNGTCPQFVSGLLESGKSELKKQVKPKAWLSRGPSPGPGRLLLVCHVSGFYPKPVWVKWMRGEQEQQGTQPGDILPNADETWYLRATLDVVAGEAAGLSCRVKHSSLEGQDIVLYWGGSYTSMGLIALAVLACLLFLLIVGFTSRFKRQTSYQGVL

Molecule	ΔTm aveage (hCD1d)	ΔT m (NanoDSF) (hCD1d)	Fnorm (rep 1-3) (AF647‐labeled hCD1d [1]; 3.05176e-8 M detergent)	Fnorm (rep 1-3) (AF647‐labeled hCD1d [1]; 6.10352e-8 M detergent)	Fnorm (rep 1-3) (AF647‐labeled hCD1d [1]; 1.2207e-7 M detergent)	Fnorm (rep 1-3) (AF647‐labeled hCD1d [1]; 2.44141e-7 M detergent)	Fnorm (rep 1-3) (AF647‐labeled hCD1d [1]; 4.88281e-7 M detergent)	Fnorm (rep 1-3) (AF647‐labeled hCD1d [1]; 9.76563e-7 M detergent)	Fnorm (rep 1-3) (AF647‐labeled hCD1d [1]; 1.95313e-6 M detergent)	Fnorm (rep 1-3) (AF647‐labeled hCD1d [1]; 3.90625e-6 M detergent)	Fnorm (rep 1-3) (AF647‐labeled hCD1d [1]; 7.8125e-6 M detergent)	Fnorm (rep 1-3) (AF647‐labeled hCD1d [1]; 1.5625e-5 M detergent)	Fnorm (rep 1-3) (AF647‐labeled hCD1d [1]; 3.125e-5 M detergent)	Fnorm (rep 1-3) (AF647‐labeled hCD1d [1]; 6.25e-5 M detergent)	Fnorm (rep 1-3) (AF647‐labeled hCD1d [1]; 0.000125 M detergent)	Fnorm (rep 1-3) (AF647‐labeled hCD1d [1]; 0.00025 M detergent)	Fnorm (rep 1-3) (AF647‐labeled hCD1d [1]; 0.0005 M detergent)	Fnorm (rep 1-3) (AF647‐labeled hCD1d [1]; [4])	ΔT m, detergent class summary (hCD1d)	Kd (AF647‐labeled hCD1d [1]; [5])	also measured
C[C@H](CCC(=O)O)[C@H]1CC[C@H]2[C@@H]3CC[C@@H]4C[C@H](O)CC[C@]4(C)[C@H]3C[C@H](O)[C@]12C [Deoxycholate, sodium deoxycholate]	-10 °C	−10.0 ± 0.3 °C	795.701 ‰ and 796.724 ‰ and 797.98 ‰	794.625 ‰ and 796.029 ‰ and 797.315 ‰	793.156 ‰ and 796.701 ‰ and 795.845 ‰	795.335 ‰ and 795.616 ‰ and 795.028 ‰	795.887 ‰ and 794.029 ‰ and 796.702 ‰	796.103 ‰ and 795.392 ‰ and 796.86 ‰	795.057 ‰ and 792.832 ‰ and 795.608 ‰	796.418 ‰ and 796.702 ‰ and 795.904 ‰	795.548 ‰ and 798.002 ‰ and 797.636 ‰	795.128 ‰ and 798.849 ‰ and 799.048 ‰	798.119 ‰ and 798.444 ‰ and 799.423 ‰	800.962 ‰ and 799.886 ‰ and 803.305 ‰	801.785 ‰ and 804.744 ‰ and 805.19 ‰	804.206 ‰ and 807.083 ‰ and 805.968 ‰	808.515 ‰ and 808.171 ‰ and 806.841 ‰	814.33 ‰ and 809.551 ‰ and 810.963 ‰	–	–	ΔT m (NanoDSF) (hCD1d; listed as Sodium deoxycholate): −10.0 ± 0.3 °C; detergent concentration at which hCD1d appeared to unfold (hCD1d; disappearance of inflection point in ∂(F350/F330)/∂T): > 200 µM; binding to hCD1d by MST (in words) (AF647‐labeled hCD1d [1]): observable binding; Kd (AF647‐labeled hCD1d [2]; [5]): 103 µM; Kd (AF647‐labeled hCD1d [2]; [6]): > 10000 µM
Tween 80	-9.7 °C	-9.7 ± 0.4 °C	–	–	–	–	–	–	–	–	–	–	–	–	–	–	–	–	−8 to −10 °C	3.24 µM	Fnorm (rep 1-3) (AF647‐labeled hCD1d [1]; 6.10352e-9 M detergent): 805.067 ‰ and 809.857 ‰ and 804.507 ‰; Fnorm (rep 1-3) (AF647‐labeled hCD1d [1]; 1.2207e-8 M detergent): 806.458 ‰ and 809.351 ‰ and 805.026 ‰; Fnorm (rep 1-3) (AF647‐labeled hCD1d [1]; 2.44141e-8 M detergent): 805.306 ‰ and 809.655 ‰ and 805.09 ‰; Fnorm (rep 1-3) (AF647‐labeled hCD1d [1]; 4.88281e-8 M detergent): 807.116 ‰ and 806.609 ‰ and 806.1 ‰; Fnorm (rep 1-3) (AF647‐labeled hCD1d [1]; 9.76563e-8 M detergent): 804.905 ‰ and 807.619 ‰ and 802.759 ‰; Fnorm (rep 1-3) (AF647‐labeled hCD1d [1]; 1.95313e-7 M detergent): 804.684 ‰ and 807.405 ‰ and 803.094 ‰; Fnorm (rep 1-3) (AF647‐labeled hCD1d [1]; 3.90625e-7 M detergent): 805.673 ‰ and 808.266 ‰ and 805.393 ‰; Fnorm (rep 1-3) (AF647‐labeled hCD1d [1]; 7.8125e-7 M detergent): 808.872 ‰ and 807.822 ‰ and 807.967 ‰; Fnorm (rep 1-3) (AF647‐labeled hCD1d [1]; 1.5625e-6 M detergent): 807.024 ‰ and 810.305 ‰ and 805.453 ‰; Fnorm (rep 1-3) (AF647‐labeled hCD1d [1]; 3.125e-6 M detergent): 820.597 ‰ and 825.116 ‰ and 819.282 ‰; Fnorm (rep 1-3) (AF647‐labeled hCD1d [1]; 6.25e-6 M detergent): 847.228 ‰ and 846.294 ‰ and 841.909 ‰; Fnorm (rep 1-3) (AF647‐labeled hCD1d [1]; 1.25e-5 M detergent): 846.069 ‰ and 855.71 ‰ and 840.031 ‰; Fnorm (rep 1-3) (AF647‐labeled hCD1d [1]; 2.5e-5 M detergent): 844.894 ‰ and 848.667 ‰ and 837.578 ‰; Fnorm (rep 1-3) (AF647‐labeled hCD1d [1]; 5e-5 M detergent): 846.685 ‰ and 845.769 ‰ and 838.247 ‰; Fnorm (rep 1-3) (AF647‐labeled hCD1d [1]; 0.0001 M detergent): 846.112 ‰ and 846.019 ‰ and 837.99 ‰; Fnorm (rep 1-3) (AF647‐labeled hCD1d [1]; 0.0002 M detergent): 847.908 ‰ and 844.822 ‰ and 840.824 ‰; Kd (AF647‐labeled hCD1d [1]; [6]): 3.2 ± 0.1 µM; CMC [3]: 12 µM; CMC ([3]; weight/volume): 0.0016%
Tween 20	-8.33 °C	-8.3 ± 0.2 °C	810.612 ‰ and 815.192 ‰ and 809.256 ‰	813.29 ‰ and 812.34 ‰ and 811.415 ‰	817.136 ‰ and 816.199 ‰ and 816.479 ‰	815.645 ‰ and 816.365 ‰ and 812.483 ‰	818.589 ‰ and 818.547 ‰ and 817.485 ‰	822.035 ‰ and 829.676 ‰ and 823.26 ‰	824.959 ‰ and 826.615 ‰ and 828.828 ‰	831.241 ‰ and 838.502 ‰ and 830.859 ‰	839.917 ‰ and 838.414 ‰ and 840.568 ‰	845.364 ‰ and 842.629 ‰ and 839.392 ‰	839.617 ‰ and 847.737 ‰ and 840.958 ‰	842.166 ‰ and 843.948 ‰ and 838.707 ‰	841.26 ‰ and 840.691 ‰ and 839.447 ‰	843.661 ‰ and 845.01 ‰ and 840.579 ‰	843.68 ‰ and 846.334 ‰ and 839.195 ‰	842.084 ‰ and 846.496 ‰ and 844.53 ‰	−8 to −10 °C	1.79 µM	ΔT m (nanoDSF), lipid/hCD1d (hCD1d; absence vs maximum concentration of detergent, 1 μM endo/hCD1d (Figure S10)): ≈ −8.3 °C; Kd (AF647‐labeled hCD1d [1]; [6]): 1.8 ± 0.5 µM; CMC [3]: 59 µM; CMC ([3]; weight/volume): 0.0072%
